According to patent publication US20250099420A1, “SMALL MOLECULE MODULATORS OF GPR139 COMPLEX” (University of Florida Research Foundation, Incorporated, priority 2022, published 2025):
Where two headings read alike, the source gives them in different places.

What was measured:
parental HEK cells = experiment: HEK parental Agonist Counterscreen Assay (non-transfected cells); format: cell-based; conditions: for Averaged Max % Response (±St. Dev.): activity relative to known control
From the text: The high control for the agonist counterscreen was Forskolin not acetylcholine.

GPR139 = biological target: T1, GPR139 (Homo sapiens, UniProt Q6DWJ6); experiment: GPR139 Agonist titration / agonist counterscreen assay (calcium detection, HEK-GPR139 cells); format: cell-based; design: expressed in transfected cells; host or cells: HEK Aequorin cells, Maxcyte transient transfection; conditions: GPR139 Agonist Activity; for EC50: read-out: EC50; for Averaged Max % Response (±St. Dev.): activity relative to known control
T1 sequence (Q6DWJ6 1-353): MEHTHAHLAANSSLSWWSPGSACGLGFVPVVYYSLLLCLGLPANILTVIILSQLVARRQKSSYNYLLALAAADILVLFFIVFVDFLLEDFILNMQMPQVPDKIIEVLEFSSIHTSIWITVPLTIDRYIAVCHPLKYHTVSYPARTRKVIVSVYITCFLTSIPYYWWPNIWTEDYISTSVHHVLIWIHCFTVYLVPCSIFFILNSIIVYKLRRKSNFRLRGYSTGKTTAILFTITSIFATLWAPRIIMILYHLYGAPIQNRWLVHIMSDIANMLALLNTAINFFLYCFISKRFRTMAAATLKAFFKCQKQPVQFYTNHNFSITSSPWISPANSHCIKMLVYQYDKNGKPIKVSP
Experimental: GPR activity was assessed using a calcium detection assay. […] Negative control samples were treated with DMSO. […] Intracellular calcium was measured using Calcium 5.

[1] = Homo sapiens, HEK293, HEK Agonist Activity section of Table 4 (parental HEK counterscreen)
[2] = values printed in E-notation without unit
[3] = HEK Agonist Activity section of Table 4 (parental HEK counterscreen)

SMILES | Lipophilic Efficiency (logD) (parental HEK cells; HEK Agonist Activity section) | Lipophilic Efficiency (logP) (parental HEK cells; HEK Agonist Activity section) | Averaged Max % Response (±St. Dev.) (parental HEK cells; HEK Agonist Activity section) [%] | EC50 (parental HEK cells; [1]) [nM] | Efficiency Ligand (GPR139) | Hill Slope (GPR139) | Lipophilic Efficiency (logD) (GPR139) | Lipophilic Efficiency (logP) (GPR139) | EC50 (GPR139; HEK-GPR139 cells) [nM] | Averaged Max % Response (±St. Dev.) (GPR139) [%] | Lipophilic Efficiency (logD) (GPR139; based on logD) | Lipophilic Efficiency (logP) (GPR139; based on logP) | Hill Slope (GPR139; fitted dose-response curve) | Efficiency Ligand (GPR139; ligand efficiency) | EC50 (GPR139; [2]) [nM] | Lipophilic Efficiency (logD) (parental HEK cells; HEK Agonist Activity) | Lipophilic Efficiency (logP) (parental HEK cells; HEK Agonist Activity) | Averaged Max % Response (±St. Dev.) (parental HEK cells; HEK Agonist Activity) [%] | EC50 (parental HEK cells; Homo sapiens, HEK293, HEK Agonist Activity, parental non-transfected HEK cells) [nM] | EC50 (parental HEK cells; [3]) [nM]
O=C(CCc1ccccc1)NNC(=O)C12CC3CC(CC(C3)C1)C2 [SR-01000314474] | 1.59 | 1.59 | −0.07 ± 5.01 | > 14100 | 0.37 | 2.04 | 3.13 | 3.13 | 401 | 90.74 ± 17.54 | – | – | – | – | – | – | – | – | – | –
O=C(COc1ccc2ccccc2c1)NNC(=O)Cc1cccc2ccccc12 [SR-01000316766] | 1.14 | 1.14 | −0.94 ± 3.21 | > 14100 | – | – | – | – | – | 101.45 ± 17.20 | 3.15 | 3.15 | 1.07 | 0.33 | 138 | – | – | – | – | –
CCC(=O)NNC(=O)C(C)Oc1ccc(Cl)cc1Cl (stereo not shown) [SR-01000316982] | 2.52 | 2.48 | 2.44 ± 4.96 | > 14100 | 0.46 | 1.19 | 3.90 | 3.86 | 580 | 86.53 ± 11.45 | – | – | – | – | – | – | – | – | – | –
Cc1cc(Cl)ccc1OCC(=O)NNC(=O)C1CC1c1ccccc1 (stereo not shown) [SR-01000317486] | – | – | – | – | – | – | – | – | – | 114.27 ± 15.21 | 4.70 | 4.70 | 1.01 | 0.44 | 12.3 | 1.64 | 1.64 | 3.86 ± 3.87 | > 14100 | –
Cc1cccc(OCC(=O)NNC(=O)C(C)Oc2ccc(Cl)cc2Cl)c1 (stereo not shown) [SR-01000318010] | 1.19 | 1.15 | 12.20 ± 3.74 | – | – | – | – | – | – | 90.09 ± 14.61 | 3.32 | 3.28 | 1.08 | 0.38 | 103 | – | – | – | – | > 14100
N#C/C(=C/c1ccc(CNS(=O)(=O)c2ccccc2)o1)C(=O)NCCc1ccccc1 [SR-01000318079] | 1.96 | 1.94 | 11.69 ± 6.13 | – | – | – | – | – | – | 102.46 ± 8.64 | 3.78 | 3.77 | 0.56 | 0.30 | 210 | – | – | – | – | > 14100
Cc1c(Cl)c([N+](=O)[O-])nn1CC(=O)NC(C)COc1ccccc1 (stereo not shown) [SR-01000318171] | 2.16 | 2.16 | 6.88 ± 5.68 | > 14100 | 0.36 | 1.01 | 3.49 | 3.49 | 656 | 76.40 ± 3.97 | – | – | – | – | – | – | – | – | – | –
Cc1cc(Br)ccc1OCC(=O)NNC(=O)c1ccccc1C [SR-01000318521] | 1.31 | 1.30 | 6.11 ± 9.12 | > 14100 | 0.36 | 0.97 | 2.40 | 2.39 | 1200 | 72.38 ± 5.96 | – | – | – | – | – | – | – | – | – | –
CC(Oc1ccc(Cl)cc1Cl)C(=O)NNC(=O)c1ccncc1 (stereo not shown) [SR-01000319951] | 2.60 | 2.54 | 7.14 ± 13.31 | > 14100 | – | – | – | – | – | 97.49 ± 3.70 | 4.59 | 4.53 | 0.88 | 0.42 | 143 | – | – | – | – | –
O=C(O)CC1CCCC1c1ccccc1 (stereo not shown) [SR-01000320687] | 4.35 | 1.80 | 17.26 ± 6.30 | > 14100 | 0.56 | 0.93 | 5.53 | 2.98 | 930 | 65.23 ± 8.63 | – | – | – | – | – | – | – | – | – | –
